According to patent publication US20140106967A1, “AUXIN PLANT GROWTH REGULATORS” (The Governors of The University of Alberta, priority 2011, published 2014):

Columns and labels:
tomato fruit = conditions: cited from earlier work
[1] = system: AtGA20ox and AtGA3ox genes; conditions: non-pollinated fruits; cited from earlier work
pea 'Carneval' = experiment: Growth chamber experiment 1, pea 'Carneval' sprayed with 4-Cl-IAA (Table P2); type: in vivo, Pisum sativum L.; conditions: for Seed yield per plant: sprayed near or at anthesis
Description: For growth chamber experiment, seeds of ‘Carneval’ were planted at an approximate depth of 2.5 cm in 3-L plastic pots (4 seeds per pot and thinned to 2 plants per pot after approximately 2 weeks) in 1:1 Sunshine #4 potting mix (Sun Gro Horticulture, Vancouver, Canada) and sand. The experiment was arranged in a completely randomized design and grown at the University of Alberta in a growth chamber set at 19° C./17° C. (day/night) with a 16/8-h photoperiod under cool-white fluorescent lights (54W/835/HO high fluorescent bulbs, Phillips, Holland; 350 μE m^2 s^−2). For the heat stress treatment, plants were placed in a separate growth chamber with a 16/8-h photoperiod under cool-white fluorescent lights (F54/15/835/HO high fluorescent bulbs, Phillips, Holland) for 4 days where the temperature was cycled over a 24 hr period as follows: 33° C. air temperature for 6 hours per day (between 11:00 and 17:00 hrs) for 4 days during the light cycle; the remainder of the light cycle was maintained at a 22° C. air temperature; the dark cycle was maintained at 19° C. After the 4 day heat treatment, the plants were returned to the same growth chamber they were originally grown in, where they were taken to maturity.
For experiment 1, aqueous 4-chloro-indole-3-acetic acid (4-Cl-IAA) solutions at 1×10^−7, 1×10^−6, or 1×10^−5M in 0.1% (v/v) Tween 80 or aqueous 0.1% (v/v) Tween 80 (control) were applied one time as a spray to the entire plant to cover when the first flowering node of the main stem was near or at anthesis.

canola cv. Peace = experiment: Greenhouse canola study, foliar auxin spray at green bud stage, with or without heat stress (Tables C1-C4); type: in vivo, Brassica napus
Description: Canola seeds (Brassica napus) from the cultivar Peace were planted at an approximate depth of 1 cm in 5 inch square plastic pots (6 inch pot depth; 4 seeds per pot) in 1:1 Sunshine #4 potting mix (Sun Gro Horticulture, Vancouver, Canada) and sand. The seedlings were thinned to one seedling per pot approximately 2 weeks after seeding. Plants were grown at the University of Alberta in a greenhouse from Nov. 14, 2011 to Mar. 5, 2012. The average temperature was approximately 18° C. day/16° C. night (Nov. 14, 2011 to Feb. 8, 2012) then 21° C. day/19° C. night from Feb. 8 to Mar. 5, 2012. The plants also received supplemental lighting daily (average photon flux density of 250 μE m^−2s^−2) for 16 hours per day (from 6 am to 10 pm).
The auxins, 4-methyl-indole-3-acetic acid (4-ME-IAA) or 4-chloro-indole-3-acetic acid (4-Cl-IAA) at 1×10^−7, 1×10^−6, 1×10^−5, or 1×10^−4M in aqueous 0.1% (v/v) Tween 80 or a control solution (aqueous 0.1% [v/v] Tween 80) were applied one time as a foliar spray to canola plants at the green bud stage (BBCH scale 51; prior to bolting when flower buds are visible from above, but they are tightly clustered and have not extended above smallest leaves surrounding the inflorescence). The experiment was arranged in a completely randomized design in the greenhouse.
The heat stress treatment was imposed by moving plants to receive the heat stress from the greenhouse into a growth chamber for 6 days. The light cycle began at 7:00 hours at a 19° C. air temperature. The heat treatment began at 11:00 hours (33° C. air temperature) and was maintained for 6 hours (until 17:00 hours). Following the heat treatment, the remainder of the light cycle was maintained at a 22° C. air temperature. The dark cycle (began at 23:00 hours) was maintained at 17° C. The photoperiod was 16 h light/8 h dark at an average photon flux density of 492 μE m^−2s^−2 using 54W/835/HO high fluorescent bulbs, Phillips, Holland. This heat treatment cycle was imposed for 6 days. The plants were returned to the greenhouse after the heat stress treatment to develop to maturity.

pea pericarp [2] = experiment: Split-pericarp assay: growth of deseeded pea pericarps attached to the plant; type: in vivo, Pisum sativum
From the text: In addition to GAs, developing pea seeds and pericarps contain two auxins, 4-chloroindole-3-acetic acid (4-Cl-IAA) and indole-3-acetic acid (IAA) (Magnus et al. 1997). A split-pericarp assay where test compounds are applied to the inner wall of split and deseeded pericarps that are still attached to the plant has been developed to examine the effects of exogenously applied growth substances on pericarp growth.
(§1) During early pea fruit growth, the physiological roles of 4-chloroindole-3-acetic acid (4-Cl-IAA) and IAA, both natural pea auxins, in regulating gibberellin (GA) 20-oxidase gene expression (PsGA20ox1) were tested with 4-position, ring-substituted auxins that have a range of biological activities (fruit growth). The effect of seeds, and natural and synthetic auxins (4-Cl-IAA, and IAA; 4-Me-IAA, 4-Et-IAA and 4-F-IAA, respectively), and auxin concentration (4-Cl-IAA) on PsGA20ox1 mRNA levels in pea pericarp were investigated over a 24 h treatment period. The ability of certain 4-substituted auxins to increase PsGA20ox1 mRNA levels in deseeded pericarp was correlated with their ability to stimulate pericarp growth.

[3] = system: PsGA20ox1, PsGA3ox1, PsGA2ox1; experiment: GA biosynthesis/catabolism gene expression in pea pericarp; type: in vivo, Pisum sativum; conditions: 24 h treatment period
Description: as §1

pea pericarp [4] = conditions: cited from earlier work; for substitution for seeds in stimulating pericarp growth: deseeded pericarps, early pericarp growth (2 DAA); for substitution for the seeds in maintaining pea fruit growth in planta: in vivo
[5] = system: PsGA20ox1, PsGA3ox1, PsGA2ox1; conditions: in vivo; cited from earlier work
[6] = 1×10^−4 M, heat stress 33° C. 6 h/day, 6 days (Table C4)
[7] = 1×10^−4 M, non-heat stress (Table C3)
[8] = 1×10^−5 M, heat stress 33° C. 6 h/day, 6 days (Table C4)
[9] = 1×10^−5 M, non-heat stress (Table C3)
[10] = 1×10^−6 M, heat stress 33° C. 6 h/day, 6 days (Table C4)
[11] = 1×10^−6 M, non-heat stress (Table C3)
[12] = 1×10^−7 M, heat stress 33° C. 6 h/day, 6 days (Table C4)
[13] = 1×10^−7 M, non-heat stress (Table C3)

SMILES: O=C(O)COc1ccc(Cl)cc1Cl [2,4-D]
- parthenocarpic fruit growth (tomato fruit): induced parthenocarpic tomato fruit growth
- expression of specific AtGA20ox and AtGA3ox genes [1]: up-regulated

SMILES: O=C(O)Cc1c[nH]c2cccc(Cl)c12 [4-Cl-IAA, 4-chloroindole-3-acetic acid]
- increase in seed yield vs control (pea 'Carneval'; 1×10^−5 M): 62%
- Seed yield per plant (pea 'Carneval'; 1×10^−5 M): 18.28 ± 1.55 g
- increase in seed yield vs control (pea 'Carneval'; 1×10^−6 M): 65%
- Seed yield per plant (pea 'Carneval'; 1×10^−6 M): 18.61 ± 1.65 g
- Seed yield per plant (pea 'Carneval'; 1×10^−7 M): 13.60 ± 1.33 g
- leaf epinasty (canola cv. Peace; 1×10^−4 M, 24 hours after treatment, milder under heat stress): leaf epinasty was observed
- % pod set (canola cv. Peace; [6]): 49 ± 4%
- Seed yield (canola cv. Peace; [6]): 4.9 ± 0.8 g
- Total number of flowers (canola cv. Peace; [6]): 312 ± 32
- Total number of pods with developing seeds (canola cv. Peace; [6]): 151 ± 17
- Total number of racemes (canola cv. Peace; [6]): 12 ± 1
- Total number undeveloped pods (canola cv. Peace; [6]): 45 ± 15
- % pod set (canola cv. Peace; [7]): 54 ± 4%
- Seed yield (canola cv. Peace; [7]): 4.0 ± 0.3 g
- Total number of flowers (canola cv. Peace; [7]): 201 ± 24
- Total number of pods with developing seeds (canola cv. Peace; [7]): 106 ± 8
- Total number of racemes (canola cv. Peace; [7]): 8 ± 1
- Total number undeveloped pods (canola cv. Peace; [7]): 17 ± 4
- reduction in number of racemes per plant vs control (canola cv. Peace; 1×10^−4 M, non-stress): 33%
- reduction in seed yield vs control (canola cv. Peace; 1×10^−4 M, non-stress): 26%
- reduction in total number of developing pods per plant vs control (canola cv. Peace; 1×10^−4 M, non-stress): 31%
- % pod set (canola cv. Peace; [8]): 48 ± 2%
- Seed yield (canola cv. Peace; [8]): 5.5 ± 1.0 g
- Total number of flowers (canola cv. Peace; [8]): 414 ± 65
- Total number of pods with developing seeds (canola cv. Peace; [8]): 198 ± 33
- Total number of racemes (canola cv. Peace; [8]): 14 ± 2
- Total number undeveloped pods (canola cv. Peace; [8]): 34 ± 6
- increase in total number of pods with developing seeds per plant vs control (canola cv. Peace; 1×10^−5 M, non-heat stress): 27%
- % pod set (canola cv. Peace; [9]): 57 ± 6%
- Seed yield (canola cv. Peace; [9]): 5.8 ± 1.0 g
- Total number of flowers (canola cv. Peace; [9]): 362 ± 53
- Total number of pods with developing seeds (canola cv. Peace; [9]): 195 ± 21
- Total number of racemes (canola cv. Peace; [9]): 14 ± 2
- Total number undeveloped pods (canola cv. Peace; [9]): 47 ± 19
- % pod set (canola cv. Peace; [10]): 53 ± 3%
- Seed yield (canola cv. Peace; [10]): 6.8 ± 0.5 g
- Total number of flowers (canola cv. Peace; [10]): 430 ± 39
- Total number of pods with developing seeds (canola cv. Peace; [10]): 229 ± 30
- Total number of racemes (canola cv. Peace; [10]): 15 ± 1
- Total number undeveloped pods (canola cv. Peace; [10]): 42 ± 5
- seed yield vs control (canola cv. Peace; 1×10^−6 M, mild heat stress): significant increase
- % pod set (canola cv. Peace; [11]): 59 ± 4%
- Total number of flowers (canola cv. Peace; [11]): 290 ± 26
- Total number of pods with developing seeds (canola cv. Peace; [11]): 174 ± 25
- Total number of racemes (canola cv. Peace; [11]): 12 ± 1
- Total number undeveloped pods (canola cv. Peace; [11]): 29 ± 4
- % pod set (canola cv. Peace; [12]): 46 ± 3%
- Seed yield (canola cv. Peace; [12]): 6.0 ± 0.9 g
- Total number of flowers (canola cv. Peace; [12]): 443 ± 70
- Total number of pods with developing seeds (canola cv. Peace; [12]): 197 ± 15
- Total number of racemes (canola cv. Peace; [12]): 13 ± 2
- Total number undeveloped pods (canola cv. Peace; [12]): 43 ± 14
- increase in percent pod set vs control (canola cv. Peace; 1×10^−7 M, non-heat stress): 21%
- increase in total number of pods with developing seeds per plant vs control (canola cv. Peace; 1×10^−7 M, non-heat stress): 18%
- % pod set (canola cv. Peace; [13]): 64 ± 4%
- Seed yield (canola cv. Peace; [13]): 6.2 ± 0.6 g
- Total number of flowers (canola cv. Peace; [13]): 287 ± 29
- Total number of pods with developing seeds (canola cv. Peace; [13]): 181 ± 14
- Total number of racemes (canola cv. Peace; [13]): 10 ± 1
- Total number undeveloped pods (canola cv. Peace; [13]): 26 ± 9
- pericarp growth (biological activity) (pea pericarp [2]): greatest increase
- PsGA20ox1 mRNA levels in deseeded pericarp [3]: greatest increase
- substitution for seeds in stimulating pericarp growth (pea pericarp [4]): can substitute for seeds in stimulating pericarp growth
- substitution for the seeds in maintaining pea fruit growth in planta (pea pericarp [4]): can substitute for the seeds
- gene expression of the GA catabolic gene PsGA2ox1 [5]: repress
- pericarp GA biosynthesis gene expression, PsGA20ox1 and PsGA3ox1 [5]: stimulate

SMILES: CCc1cccc2[nH]cc(CC(=O)O)c12 [4-Et-IAA]
- pericarp growth (biological activity) (pea pericarp [2]): minimal or no increase
- PsGA20ox1 mRNA levels in deseeded pericarp [3]: minimal or no increase

SMILES: O=C(O)Cc1c[nH]c2cccc(F)c12 [4-F-IAA]
- pericarp growth (biological activity) (pea pericarp [2]): minimal or no increase
- PsGA20ox1 mRNA levels in deseeded pericarp [3]: minimal or no increase

SMILES: O=C(O)Cc1c[nH]c2ccccc12 [IAA, indole-3-acetic acid, reference compound]
- pericarp growth (biological activity) (pea pericarp [2]): not effective
- PsGA20ox1 mRNA levels in deseeded pericarp [3]: not effective
- substitution for seeds in stimulating pericarp growth (pea pericarp [4]): cannot
- substitution for the seeds in maintaining pea fruit growth in planta (pea pericarp [4]): not
